According to patent publication US20230241072A1, “ANTHRACYCLINE DERIVATIVES” (ALMAC DISCOVERY LIMITED, priority 2019, published 2023):

How the values were obtained:
MDA-468 = assay: Free payload potency in cell lines (96 h): MDA-468; type: cell-based; conditions: MDA-468 (Breast)
Procedure: (§1) The potency of the EDA-PNU159682 derivative (FIG. 1) was tested in a variety of cell lines.

ACHN = assay: Free payload potency in cell lines (96 h): ACHN; type: cell-based; conditions: ACHN (Kidney)
Procedure: as §1

Kasumi-2 = assay: Free payload potency in cell lines (96 h): Kasumi-2; type: cell-based, human; conditions: Kasumi-2 (BCL)
Procedure: as §1

A2780 = conditions: ovarian cell line A2780; cited from earlier work
PA-1 = assay: Free payload potency in cell lines (96 h): PA-1; type: cell-based, human; conditions: PA-1 (Ovarian)
Procedure: as §1

A427 = assay: Free payload potency in cell lines (96 h): A427; type: cell-based; conditions: A427 (Lung)
Procedure: as §1

MHH-ES1 = assay: Free payload potency in cell lines (96 h): MHH-ES1; type: cell-based, human; conditions: MHH-ES1 (Ewings sarcoma)
Procedure: as §1

[1] = test system: PA-1 32.35 (Ovarian ROR1 −/−); assay: Free payload potency in cell lines (96 h): PA-1 32.35; type: cell-based, human
Procedure: as §1

MCF7 = conditions: breast cancer cell line MCF7; cited from earlier work
Hs746T = assay: Free payload potency in cell lines (96 h): Hs746T; type: cell-based; conditions: Hs746T (Stomach)
Procedure: as §1

Panc-1 = assay: Free payload potency in cell lines (96 h): Panc-1; type: cell-based; conditions: Panc-1 (Pancreatic)
Procedure: as §1

A549 = assay: Free payload potency in cell lines (96 h): A549; type: cell-based, human; conditions: A549 (Lung)
Procedure: as §1

697 = assay: Free payload potency in cell lines (96 h): 697; type: cell-based, human; conditions: 697 (BCL)
Procedure: as §1

PC-9 = assay: Free payload potency in cell lines (96 h): PC-9; type: cell-based; conditions: PC-9 (Lung)
Procedure: as §1

JeKo-1 = assay: Free payload potency in cell lines (96 h): JeKo-1; type: cell-based; conditions: JeKo-1 (MCL)
Procedure: as §1

[2] = test system: PA-1 31-J-06 (Ovarian ROR1 −/−); assay: Free payload potency in cell lines (96 h): PA-1 31-J-06; type: cell-based, human
Procedure: as §1

Mino = assay: Free payload potency in cell lines (96 h): Mino; type: cell-based; conditions: Mino (MCL)
Procedure: as §1

DU145 = assay: Free payload potency in cell lines (96 h): DU145; type: cell-based; conditions: DU145 (Prostate)
Procedure: as §1

[3] = Mouse plasma half-life of free payloads (parallel study); type: in vitro ADME; conditions: free payload
Procedure: For both the vc-PAB-DMAE-PNU and vc-PAB-EDA-PNU conjugates liberation of some free payload could be detected as a function of time, with 217 nM PNU159682 and 114 nM of EDA-PNU159682 derivative detected after 120 h respectively. Note, in a parallel study, we calculated the mouse plasma half-lives of the free PNU159682 and EDA-PNU159682 derivatives to be 33 h and 116 h respectively.

NCI-N87 = assay: Free payload potency in cell lines (96 h): NCI-N87; type: cell-based; conditions: NCI-N87 (Stomach)
Procedure: as §1

MDA-231 = assay: Free payload potency in cell lines (96 h): MDA-231; type: cell-based; conditions: MDA-231 (Breast)
Procedure: as §1

With COc1cccc2c1C(=O)c1c(O)c3c(c(O)c1C2=O)C[C@@](O)(C(=O)CO)C[C@@H]3O[C@H]1C[C@H]2[C@H](O[C@@H]3[C@@H](OC)OCCN32)[C@H](C)O1 [PNU159682] the IC50 (MDA-468) was 0.021 nM, the IC50 (ACHN) was 0.0097 nM and the IC50 (Kasumi-2) was 0.0024 nM. For the same compound, the “potency for in vitro cell killing” value (A2780) was “pico- to femtomolar range”, the IC50 (PA-1) was 0.0044 nM and the IC50 (A427) was 0.0098 nM. The IC50 (MHH-ES1) was 0.0034 nM, the IC50 [1] was 0.0014 nM and the “potency for in vitro cell killing” value (MCF7) was “pico- to femtomolar range”. For the same compound, the IC50 (Hs746T) was 0.049 nM, the IC50 (Panc-1) was 0.026 nM and the IC50 (A549) was 0.013 nM. The IC50 697 was 0.008 nM, the IC50 (PC-9) was 0.047 nM and the IC50 (JeKo-1) was 0.044 nM. The IC50 [2] was 0.0022 nM, the IC50 (Mino) was 0.037 nM and the IC50 (DU145) was 0.022 nM. It also gave a mouse plasma half-life [3] of 33 h, an IC50 (NCI-N87) of 0.122 nM and an IC50 (MDA-231) of 0.011 nM.
